Measurements published in US7223769B2, “Pyrimidine compounds and their use as pesticides” (Sumitomo Chemical Company, Limited, priority 2002, dated 2007).

The compounds below were run on Frankliniella occidentalis (Western flower thrips) (assay: Test Example 2: sprayed cucumber leaf, larvae of Frankliniella occidentalis set free, surviving pests counted). Conditions: 500 ppm spray solution, 20 ml/cup, cucumber first true leaf, thirty larvae set free, after seven days.
Assay type: in vivo
Experimental: Ten parts of each of the present compounds (2), (4), (6), (7), (8), (11), (12), (14), (16), (17), (19) to (24), (26), (28), (29), (34), (36) to (38), and (40); white carbon containing 50 parts of polyoxyethylene alkyl ether sulfate ammonium salt; and […] of water were mixed and pulverized by the wet grinding method to give a formulation for each compound. The formulation of each present compound was diluted with water so that the active ingredient concentration came to 500 ppm to prepare a spray solution.
A polyethylene cup was seeded with cucumber and a plant was grown until the first true leaf was developed, to which the above spray solution was applied at a ratio of 20 ml/cup. After the chemical solution sprayed to the cucumber were dried, the first true leaf was cut off and placed on a filter paper (70 mm in diameter) impregnated with water in a polyethylene cup (110 mm in diameter). Thirty larvae of Frankliniella occidentalis (Western flower thrips) were set free on the first true leaf, which was covered with a polyethylene cup. After seven days, the number of surviving pests was examined.

Structure (SMILES) | number of surviving pests
CC#CCOc1cc(OC(C)C2CC2)ncn1 (stereo not drawn) [present compound (2), 4-(2-butynyloxy)-6-(1-cyclopropylethoxy)pyrimidine] | 0
CC#CCOc1cc(OC(CC)C(C)(C)C)ncn1 (stereo not drawn) [present compound (4), 4-(2-butynyloxy)-6-(1-ethyl-2,2-dimethylpropyloxy)pyrimidine] | 0
CC#CCOc1cc(OCC(C)(C)C)ncn1 [present compound (6), 4-(2-butynyloxy)-6-(2,2-dimethylpropyloxy)pyrimidine] | 0
CC#CCOc1cc(OC(C)CC(C)(C)C)ncn1 (stereo not drawn) [present compound (7), 4-(2-butynyloxy)-6-(1,3,3-trimethylbutyloxy)pyrimidine] | 0
CC#CCOc1cc(OC(C)C2(C)CC2)ncn1 (stereo not drawn) [present compound (8), 4-(2-butynyloxy)-6-[1-(1-methylcyclopropyl)ethyloxy]pyrimidine] | 0
CC#CCOc1cc(OCCC(C)(C)C)ncn1 [present compound (11), 4-(2-butynyloxy)-6-(3,3-dimethylbutyloxy)pyrimidine] | 0
CC#CCOc1cc(OC(C)C(C)C)ncn1 (stereo not drawn) [present compound (12), 4-(2-butynyloxy)-6-(1,2-dimethylpropyloxy)pyrimidine] | 0
CC#CCOc1cc(OC(C)C(C)(C)F)ncn1 (stereo not drawn) [present compound (14), 4-(2-butynyloxy)-6-(2-fluoro-1,2-dimethylpropyloxy)pyrimidine] | 0
CC#CCOc1cc(OC(C)C(C)CC)ncn1 (stereo not drawn) [present compound (16), 4-(2-butynyloxy)-6-(1,2-dimethylbutyloxy)pyrimidine] | 0
CCC#CCOc1cc(OC(C)C(C)(C)F)ncn1 (stereo not drawn) [present compound (17), 4-(2-fluoro-1,2-dimethylpropyloxy)-6-(2-pentynyloxy)pyrimidine] | 0
CC#CCOc1cc(OC(C)C2CCCC2)ncn1 (stereo not drawn) [present compound (26), 4-(2-butynyloxy)-6-(1-cyclopentylethyloxy)pyrimidine] | 0
CC#CCOc1cc(OCC(C)(C)F)ncn1 [present compound (28), 4-(2-butynyloxy)-6-(2-fluoro-2-methylpropyloxy)pyrimidine] | 0
CC#CCOc1cc(OC(C)C(Cl)Cl)ncn1 (stereo not drawn) [present compound (29), 4-(2-butynyloxy)-6-(2,2-dichloro-1-methylethyloxy)pyrimidine] | 0
CC#CCOc1cc(OC(C)C(C)(C)Cl)ncn1 (stereo not drawn) [present compound (34), 4-(2-butynyloxy)-6-(2-chloro-1,2-dimethylpropyloxy)pyrimidine] | 0
CCC#CCOc1cc(OCC(C)(C)Cl)ncn1 [present compound (40), 4-(2-pentynyloxy)-6-(2-chloro-2-methylpropyloxy)pyrimidine] | 0
